Test results from US20220195461A1, “METHODS AND COMPOSITIONS FOR TRANSGENE EXPRESSION” (priority 2019, published 2022).

Test system: CF (HBE and HTE, dF508/dF508, Passage 0) cells
Assay: LDH activity (toxicity) of AV.TL65 plus proteasome inhibitor versus AAV alone
Assay type: cell-based, human
Settings: for LDH (toxicity) activity compared to AAV without a proteasome inhibitor: augmenter + AV.TL65-gLuc-mCherry, 4 days after infection (FIG. 1B); for toxicity of the enhancement: augmenter combined with AV.TL65Luciferase-mCherry, ALI HBE cultures; for LDH relative to baseline: passage 0 (P0) cells
Description: FIGS. 1A and 1B are a series of graphs showing the ratio of luciferase activity in cells treated with AV.TL65+proteasome inhibitor (PI) versus AAV alone (FIG. 1A) and the ratio of LDH activity in cells treated with AV.TL65+PI versus AAV alone (FIG. 1B). […] Relative Luminescence Units in CF HBE treated with AV.TL65 with PI exceeded 200-fold of AV.TL65 without PI. Toxicity of AV.TL65 with PI as measured by LDH activity was mostly below 150% of AV.TL65 without PI.
We have generated a novel AAV vector featuring a capsid that is highly efficient at transducing human airway epithelium in the apical membrane. Specifically, we have used AV.TL65-SP183-CFTRΔR to deliver an R-domain-partially-deleted CFTR minigene and AV.TL65Luciferase-mCherry, a dual reporter vector, to express luciferase and fluorescent mCherry protein. The AV.TL65-SP183-CFTRΔR rAAV vector included a polynucleotide comprising: a 5′ AAV ITR comprising the sequence of SEQ ID NO:15, an F5 enhancer comprising the sequence of SEQ ID NO:14 (which may include a 5′ EcoRI site and a 3′ XhoI site, as in SEQ ID NO:1), a tg83 promoter comprising the sequence of SEQ ID NO:2, a 5′ UTR comprising the sequence of SEQ ID NO:3, a hCFTRΔR minigene comprising the sequence of SEQ ID NO:4, a 3′ UTR comprising the sequence of SEQ ID NO:5, a s-pA comprising the sequence of SEQ ID NO:6, and a 3′ AAV ITR comprising the sequence of SEQ ID NO:16. For example, the packaged polynucleotide may include the sequence of SEQ ID NO:17. […] We have shown that combining AV.TL65Luciferase-mCherry with doxorubicin or idarubicin provides non-toxic enhancement of luciferase expression by more than 600-fold of air-liquid interface (ALI) human bronchial epithelial (HBE) cultures from 5 separate CF (homozygous dF508/dF508 CFTR) and non-CF donors compared to AV.TL65Luciferase-mCherry without proteasome inhibitor. In another experiment, doxorubicin and idarubicin+AV.TL65-gLuc-mCherry improved transduction over AAV without a proteasome inhibitor by over 200-fold (FIG. 1A, dashed line). Doxorubicin added to AV.TL65-gLuc-mCherry but not idarubicin had less than 150% LDH (toxicity) activity compared to AAV without a proteasome inhibitor (FIG. 1B; dashed line). Transduction efficiency gains in passage 0 (PO) cells were well above 200-fold better with doxorubicin and idarubicin with LDH <1.5× baseline for doxorubicin and >1.5× baseline for idarubicin.

SMILES | LDH (toxicity) activity compared to AAV without a proteasome inhibitor | toxicity of the enhancement | LDH relative to baseline [× baseline]
COc1cccc2c1C(=O)c1c(O)c3c(c(O)c1C2=O)C[C@@](O)(C(=O)CO)C[C@@H]3O[C@H]1C[C@H](N)[C@H](O)[C@H](C)O1 [doxorubicin] | less than 150% | non-toxic | < 1.5
CC(=O)[C@]1(O)Cc2c(O)c3c(c(O)c2[C@@H](O[C@H]2C[C@H](N)[C@H](O)[C@H](C)O2)C1)C(=O)c1ccccc1C3=O [idarubicin] | ≥ 150% | non-toxic | > 1.5
